Results reported in US10821115B2, “Compounds that inhibit Mcl-1 protein” (priority 2017, dated 2020).
Read-outs that look alike come from different tables or passages of the source.

Tests used:
[1] = molecular target: recombinant human Mcl-1 (residues 171-327) / Bim interaction (Homo sapiens (Human), UniProt Q07820); assay: biochemical; assay type: binding
[2] = system: human multiple myeloma cell line, OPM-2; assay: Cell viability assay (OPM-2 10 FBS), CellTiter-Glo; assay type: cell-based
In short: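 3000 cells/well, RPMI 1640 + 10% FBS; serial compound dilutions, 16 h, 37 °C/5% CO2.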

[3] = TR-FRET, Mcl-1(171-327) / biotin-Bim (51-76), read-out: Mcl-1 HTRF IC50
[4] = 0.1 nM Mcl-1(171-327), 0.05 nM biotin-Bim (51-76), read-out: Mcl-1 HTRF IC50
[5] = Homo sapiens, OPM-2, 16 h, read-out: OPM-2 10% FBS IC50 IP, OPM-2 cells, 10% FBS, 16 h, CellTiter-Glo

recombinant human Mcl-1 (residues 171-327) / Bim interaction, sequence (Q07820 171-327): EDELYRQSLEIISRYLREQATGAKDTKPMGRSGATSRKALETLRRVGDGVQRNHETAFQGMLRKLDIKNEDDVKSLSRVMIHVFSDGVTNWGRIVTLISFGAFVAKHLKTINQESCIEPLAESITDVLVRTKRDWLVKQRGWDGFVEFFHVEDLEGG

SMILES: C[C@@H]1[C@@H](C)C/C=C/[C@@](O)(CS(=O)(=O)N(C)C)[C@@H]2CC[C@H]2CN2C[C@@]3(CCCc4cc(Cl)ccc43)COc3ccc(cc32)C(=O)NS1(=O)=O (single isomer, unassigned) [Example 100020]
- IC50 ([1]; read-out: Mcl-1 HTRF IC50): 0.032 nM

SMILES: C[C@H]1CC/C=C/[C@](C)(O)[C@@H]2CC[C@H]2CN2C[C@@]3(CCCc4cc(Cl)ccc43)COc3ccc(cc32)C(=O)NS1(=O)=O (single isomer, unassigned) [Example 100028]
- IC50 [1, 3]: 1.26 nM

SMILES: C[C@H]1CC/C=C/[C@](C)(O)[C@@H]2CC[C@H]2CN2C[C@@]3(CCCc4cc(Cl)ccc43)COc3ccc(cc32)C(=O)NS1(=O)=O (single isomer, unassigned) [Example 100029]
- IC50 [1, 3]: 8.73 nM

SMILES: C[C@H]1CC/C=C/[C@@](C)(O)[C@@H]2CC[C@H]2CN2C[C@@]3(CCCc4cc(Cl)ccc43)COc3ccc(cc32)C(=O)NS1(=O)=O (single isomer, unassigned) [Example 100032]
- IC50 [1, 3]: 0.442 nM

SMILES: C[C@@H]1[C@@H](C)C/C=C/[C@](O)(CS(=O)(=O)N(C)C)[C@@H]2CC[C@H]2CN2C[C@@]3(CCCc4cc(Cl)ccc43)COc3ccc(cc32)C(=O)NS1(=O)=O (single isomer, unassigned) [Example 100293]
- IC50 ([1]; Mcl-1 HTRF IC50): 0.522 nM

SMILES: C[C@@H]1CC[C@@H]2CC2[C@](C)(O)[C@@H]2CC[C@H]2CN2C[C@@]3(CCCc4cc(Cl)ccc43)COc3ccc(cc32)C(=O)NS1(=O)=O (stereo in doubt) [Example 100033, (1S,3′R,6′R,7′S,8′S,13′R)-6-chloro-7′-hydroxy-7′,13′-dimethyl-3,4-dihydro-2H,16′H-spiro[naphthalene-1,23′-[21]oxa[14]thia[1,15]diazapentacyclo [15.7.2.0~3,6~.0~8,10~.0~20,25~]hexacosa [17,19,25]trien]-16′-one 14′,14′-dioxide]
- IC50 [1, 3]: 2.81 nM

SMILES: C[C@@H]1[C@@H](C)C/C=C/[C@@]2(CN3CCOC[C@H]3CO2)[C@@H]2CC[C@H]2CN2C[C@@]3(CCCc4cc(Cl)ccc43)COc3ccc(cc32)C(=O)NS1(=O)=O [Example 99, (1S,3′R,6′R,7′S,8′E,9a″S,11′S,12′R)-6-chloro-11′,12′-dimethyl-3,4,6″,7″,9″,9a″-hexahydro-1″H,2H,15′H-dispiro[naphthalene-1,22′-[20]oxa[13]thia[1,14]diazatetracyclo[14.7.2.0˜3,6˜.0˜19,24˜]pentacosa[8,16,18,24]tetraene-7′,3″-[1,4]oxazino[3,4-c][1,4]oxazin]-15′-one 13′,13′-dioxide]
- IC50 [1, 4]: 0.243 nM

SMILES: CCO[C@@]1(CN2CCN3CCOC[C@@H]3C2)/C=C/C[C@H](C)[C@@H](C)S(=O)(=O)NC(=O)c2ccc3c(c2)N(C[C@@H]2CC[C@H]21)C[C@@]1(CCCc2ccccc21)CO3 [Example 105, (1S,3′R,6′R,7′S,8′E,11′S,12′R)-7′-ethoxy-7′-((9aS)-hexahydropyrazino[2,1-c][1,4]oxazin-8(1H)-ylmethyl)-11′,12′-dimethyl-3,4-dihydro-2H, 15′H-spiro[naphthalene-1,22′-[20]oxa[13]thia[1,14]diazatetracyclo[14.7.2.0-3,6˜.0˜19,24˜]pentacosa[8,16,18,24]tetraen]-15′-one 13′,13′-dioxide]
- IC50 [1, 4]: 0.423 nM

SMILES: C[C@@H]1[C@@H](C)C/C=C/[C@@]2(CN(C)CCO2)[C@@H]2CC[C@H]2CN2C[C@@]3(CCCc4cc(Cl)ccc43)COc3ccc(cc32)C(=O)NS1(=O)=O [Example 124, (1S,3′R,6′R,7′S,8′E, 11′S,12′R)-6-chloro-4″,11′,12′-trimethyl-3,4-dihydro-2H,15′H-dispiro[naphthalene-1,22′-[20]oxa[13]thia[1,14]diazatetracyclo[14.7.2.0-3,6˜.0˜19,24˜]pentacosa[8,16,18,24]tetraene-7′,2″-[1,4]oxazinan]-15′-one 13′,13′-dioxide]
- IC50 [1, 4]: 0.646 nM

SMILES: CC(C)N1CCO[C@]2(/C=C/C[C@H](C)[C@@H](C)S(=O)(=O)NC(=O)c3ccc4c(c3)N(C[C@@H]3CC[C@H]32)C[C@@]2(CCCc3cc(Cl)ccc32)CO4)C1 [Example 127, (1 S,3′R,6′R,7′S,8′E, 11′S,12′R)-6-chloro-11′,12′-dimethyl-4″-(1-methylethyl)-3,4-dihydro-2H,15′H-dispiro[naphthalene-1,22′-[20]oxa[13]thia[1,14]diazatetracyclo[14.7.2.0-3,6˜.0˜19,24˜]pentacosa[8,16,18,24]tetraene-7′,2″-[1,4]oxazinan]-15′-one 13′,13′-dioxide]
- IC50 [1, 4]: 0.395 nM

SMILES: C[C@@H]1[C@@H](C)C/C=C/[C@]2(CN(C)CCO2)[C@@H]2CC[C@H]2CN2C[C@@]3(CCCc4cc(Cl)ccc43)COc3ccc(cc32)C(=O)NS1(=O)=O [Example 130]
- IC50 [1, 4]: 0.92 nM

SMILES: C[C@@H]1[C@@H](C)C/C=C/[C@]2(CN3CCOC[C@@H]3CO2)[C@@H]2CC[C@H]2CN2C[C@@]3(CCCc4cc(Cl)ccc43)COc3ccc(cc32)C(=O)NS1(=O)=O [Example 131]
- IC50 [1, 4]: 0.249 nM

SMILES: CO[C@@]1(C#CCCc2ccncn2)/C=C/C[C@H](C)[C@@H](C)S(=O)(=O)NC(=O)c2ccc3c(c2)N(C[C@@H]2CC[C@H]21)C[C@@]1(CCCc2cc(Cl)ccc21)CO3 [Example 100519, (1S,3′R,6′R,7′S,8′E,11′S,12′R)-6-chloro-7′-methoxy-11′,12′-dimethyl-7′-(4-(4-pyrimidinyl)-1-butyn-1-yl)-3,4-dihydro-2H,15′H-spiro[naphthalene-1,22′-[20]oxa[13]thia[1,14]diazatetracyclo [14.7.2.0~3,6~.0~19,24~]pentacosa[8,16,18,24]tetraen]-15′-one 13′,13′-dioxide]
- IC50 ([2]; read-out: OPM-2 10% FBS IC50 IP, OPM-2 cells, 10% FBS, 16 h, CellTiter-Glo): 138 nM

SMILES: COC(=O)C(C)(C)NC(=O)C[C@]1(OC)/C=C/C[C@H](C)[C@@H](C)S(=O)(=O)NC(=O)c2ccc3c(c2)N(C[C@@H]2CC[C@H]21)C[C@@]1(CCCc2cc(Cl)ccc21)CO3 [Example 100544, methyl N-(((1S,3′R,6′R,7′S,8′E,11′S,12′R)-6-chloro-7′-methoxy-11′,12′-dimethyl-13′,13′-dioxido-15′-oxo-3,4-dihydro-2H-spiro[naphthalene-1,22′-[20]oxa[13]thia[1,14]diazatetracyclo [14.7.2.0~3,6~.0~19,24~]pentacosa[8,16,18,24]tetraen]-7′-yl)acetyl)-2-methylalaninate]
- IC50 [2, 5]: 306 nM

SMILES: CO[C@@]1(CC(=O)NC(C)(C)C(=O)O)/C=C/C[C@H](C)[C@@H](C)S(=O)(=O)NC(=O)c2ccc3c(c2)N(C[C@@H]2CC[C@H]21)C[C@@]1(CCCc2cc(Cl)ccc21)CO3 [Example 100546, N-(((1S,3′R,6′R,7′S,8′E,11′S,12′R)-6-chloro-7′-methoxy-11′,12′-dimethyl-13′,13′-dioxido-15′-oxo-3,4-dihydro-2H-spiro[naphthalene-1,22′-[20]oxa[13]thia[1,14]diazatetracyclo [14.7.2.0~3,6~.0~19,24~]pentacosa[8,16,18,24]tetraen]-7′-yl)acetyl)-2-methylalanine]
- IC50 [2, 5]: 440 nM

SMILES: COC(=O)CNC(=O)C[C@]1(OC)/C=C/C[C@H](C)[C@@H](C)S(=O)(=O)NC(=O)c2ccc3c(c2)N(C[C@@H]2CC[C@H]21)C[C@@]1(CCCc2cc(Cl)ccc21)CO3 [Example 100550, methyl N-(((1S,3′R,6′R,7′S,8′E,11′S,12′R)-6-chloro-7′-methoxy-11′,12′-dimethyl-13′,13′-dioxido-15′-oxo-3,4-dihydro-2H-spiro[naphthalene-1,22′-[20]oxa[13]thia[1,14]diazatetracyclo [14.7.2.0~3,6~.0~19,24~]pentacosa[8,16,18,24]tetraen]-7′-yl)acetyl)glycinate]
- IC50 [2, 5]: 6860 nM

SMILES: CO[C@@]1(CC(=O)NCc2ncco2)/C=C/C[C@H](C)[C@@H](C)S(=O)(=O)NC(=O)c2ccc3c(c2)N(C[C@@H]2CC[C@H]21)C[C@@]1(CCCc2cc(Cl)ccc21)CO3 [Example 100577, 2-((1S,3′R,6′R,7′S,8′E,11′S,12′R)-6-chloro-7′-methoxy-11′,12′-dimethyl-13′,13′-dioxido-15′-oxo-3,4-dihydro-2H-spiro[naphthalene-1,22′-[20]oxa[13]thia[1,14]diazatetracyclo [14.7.2.0~3,6~.0~19,24~]pentacosa[8,16,18,24]tetraen]-7′-yl)-N-(1,3-oxazol-2-ylmethyl)acetamide]
- IC50 [2, 5]: 2020 nM

SMILES: COC(=O)[C@H](NC(=O)C[C@]1(OC)/C=C/C[C@H](C)[C@@H](C)S(=O)(=O)NC(=O)c2ccc3c(c2)N(C[C@@H]2CC[C@H]21)C[C@@]1(CCCc2cc(Cl)ccc21)CO3)[C@@H](C)O [Example 100581, methyl N-(((1S,3′R,6′R,7′S,8′E,11′S,12′R)-6-chloro-7′-methoxy-11′,12′-dimethyl-13′,13′-dioxido-15′-oxo-3,4-dihydro-2H-spiro[naphthalene-1,22′-[20]oxa[13]thia[1,14]diazatetracyclo [14.7.2.0~3,6~.0~19,24~]pentacosa[8,16,18,24]tetraen]-7′-yl)acetyl)-D-allothreoninate]
- IC50 [2, 5]: 1540 nM

SMILES: COC(=O)[C@H](NC(=O)C[C@]1(OC)/C=C/C[C@H](C)[C@@H](C)S(=O)(=O)NC(=O)c2ccc3c(c2)N(C[C@@H]2CC[C@H]21)C[C@@]1(CCCc2cc(Cl)ccc21)CO3)C(C)=O [Example 100582]
- IC50 [2, 5]: 1120 nM

SMILES: CO[C@@]1(CC(N)=O)/C=C/C[C@H](C)[C@@H](C)S(=O)(=O)NC(=O)c2ccc3c(c2)N(C[C@@H]2CC[C@H]21)C[C@@]1(CCCc2cc(Cl)ccc21)CO3 [Example 100589, 2-((1S,3′R,6′R,7′S,8′E,11′S,12′R)-6-chloro-7′-methoxy-11′,12′-dimethyl-13′,13′-dioxido-15′-oxo-3,4-dihydro-2H-spiro[naphthalene-1,22′-[20]oxa[13]thia[1,14]diazatetracyclo [14.7.2.0~3,6~.0~19,24~]pentacosa[8,16,18,24]tetraen]-7′-yl)acetamide]
- IC50 [2, 5]: 3330 nM
